# According to paper PMC5291163 (Journal of the American Chemical Society, 2016):
# Like-named read-outs stand apart in the source and are kept apart here. Square brackets hold non-standard residues; d marks the D form. Peptide text beside a SMILES is read from it. * marks the point of attachment. Pentanoyl(5-PPh3+) = O=C(CCCC[P+](c1ccccc1)(c1ccccc1)c1ccccc1)*; d(pY) = N[C@H](Cc1ccc(OP(=O)(O)O)cc1)C(=O)O; pY = N[C@@H](Cc1ccc(OP(=O)(O)O)cc1)C(=O)O; NBD = O=[N+]([O-])c1ccc(*)c2nonc12; Cbz = O=C(OCc1ccccc1)*; βAla = NCCC(=O)O; CH2F = FC*
# Tests used:
# [1] = tested on: Saos2 cells
# [2] = tested on: active caspase3; conditions: Saos2 cells, 50 µM, first 3 h of treatment
# [3] = ALP 1 U/mL, 24 h, PBS buffer pH 7.4
# [4] = tested on: HS5 cells; conditions: 100 µM
# [5] = tested on: alkaline phosphatase (ALP); conditions: substrate 0.1 wt%, ALP 0.1 U/mL
# [6] = TEM of nanostructures before and after addition of ALP; assay type: physicochemical; conditions: 100 µM, before ALP
SMILES,toxicity on Saos2 cells of the inhibitor itself ([1]; 45 µM),"cell viability of unstimulated Saos2 ([1]; 50 µM, 48h) [%]",expression level of active caspase3 relative to untreated cells [2],increase of the SLS signal after addition of ALP ([3]; 25 µM precursor) [fold],increase of the SLS signal after addition of ALP ([3]; 50 µM precursor) [fold],increase of the SLS signal after addition of ALP ([3]; 100 µM precursor) [fold],increase of the SLS signal after addition of ALP ([3]; 200 µM precursor) [fold],cytotoxicity against HS5 cells [4],percentage of enzymatic dephosphorylation after 24 h [5],t1/2 of ALP catalyzed dephosphorylation [5] [min],diameter of uniform nanoparticles (TEM) [6] [nm]
"COC(=O)C[C@H](NC(=O)[C@H](C)NC(=O)[C@@H](NC(=O)OCc1ccccc1)C(C)C)C(=O)CF [zVAD-fmk, reference compound] (Cbz-Val-Ala-Asp(OMe)-CH2F)",no toxicity,–,–,–,–,–,–,–,–,–,–
O=C(CCCC[P+](c1ccccc1)(c1ccccc1)c1ccccc1)NCCCC[C@H](NC(=O)[C@H](Cc1ccc(OP(=O)(O)O)cc1)NC(=O)[C@H](Cc1ccccc1)NC(=O)[C@H](Cc1ccccc1)NC(=O)CCNc1ccc([N+](=O)[O-])c2nonc12)C(=O)O [L-1P] ({NBD-βAla}-FF[pY]K(Pentanoyl(5-PPh3+))-OH),–,71.7,changes little,120,48,18,14,almost innocuous,~80%,68.4,–
O=C(CCCC[P+](c1ccccc1)(c1ccccc1)c1ccccc1)NCCCC[C@@H](NC(=O)[C@@H](Cc1ccc(OP(=O)(O)O)cc1)NC(=O)[C@@H](Cc1ccccc1)NC(=O)[C@@H](Cc1ccccc1)NC(=O)CCNc1ccc([N+](=O)[O-])c2nonc12)C(=O)O [D-1P] ({NBD-βAla}-[dF][dF][d(pY)][dK](Pentanoyl(5-PPh3+))-OH),–,–,about 1.7 fold,43,10,8,4,almost innocuous,about 90%,33,25 ±2
